# Results from ChEMBL document CHEMBL1201862, “PubChem BioAssay data set” (2004).
#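 Interpolation was linear, between the two tested concentrations surrounding the appropriate level; five concentrations were tested over 48 hours in 96-well plates. At the GI50, growth is halved.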 The source made the active and inactive calls. Rule as the data show it: active = GI50 up to about 1.1 µM and inactive = higher.
# Columns and labels:
# Test in all cases: DTP human tumour cell line panel, 48 h
# [1] = tested on: MDA-N
# [2] = tested on: EKVX
# [3] = tested on: HCT-15
# [4] = tested on: NCI/ADR-RES
# [5] = tested on: BT-549
# [6] = tested on: SK-MEL-2
# [7] = tested on: A549
# [8] = tested on: TK-10
# [9] = tested on: UACC-257
# [10] = tested on: SF-268
# [11] = tested on: Hs-578T
# [12] = tested on: SNB-19
# [13] = tested on: HL-60
# [14] = tested on: OVCAR-8
# [15] = tested on: UO-31
# [16] = tested on: RPMI-8226
# [17] = tested on: HOP-62
# [18] = tested on: SR
# [19] = tested on: OVCAR-5
# [20] = tested on: NCI-H23
# [21] = tested on: SW-620
# [22] = tested on: T47D
# [23] = tested on: CAKI-1
# [24] = tested on: SN12C
# [25] = tested on: 786-0
# [26] = tested on: MOLT-4
# [27] = tested on: OVCAR-4
# [28] = tested on: M14
# [29] = tested on: SK-OV-3
# [30] = tested on: PC-3
# [31] = tested on: MCF7
# [32] = tested on: COLO 205
# [33] = tested on: HCT-116
# [34] = tested on: SK-MEL-5
# [35] = tested on: ACHN
# [36] = tested on: HOP-92
# [37] = tested on: SF-295
# [38] = tested on: K562
# [39] = tested on: NCI-H460
# [40] = tested on: IGROV-1
# [41] = tested on: HCC 2998
# [42] = tested on: CCRF-CEM
# [43] = tested on: A498
# [44] = tested on: NCI-H226
# [45] = tested on: KM12
# [46] = tested on: SF-539
# [47] = tested on: DU-145
# [48] = tested on: SNB-75
# [49] = tested on: U-251
# [50] = tested on: MDA-MB-231
# [51] = tested on: Malme-3M
# [52] = tested on: LOX IMVI
# [53] = tested on: NCI-H522
# [54] = tested on: SK-MEL-28
# [55] = tested on: OVCAR-3
# [56] = tested on: MDA-MB-435
# [57] = tested on: RXF 393
# [58] = tested on: HT-29
# [59] = tested on: UACC-62
structure (smiles),measurement,setting,value
CN1CCC[N+](C)=C1c1ccccc1,GI50,[1],> 100 µM (inactive)
same,GI50,[2],> 100 µM (inactive)
same,GI50,[3],> 100 µM
same,GI50,[4],> 100 µM (inactive)
same,GI50,[5],> 100 µM (inactive)
same,GI50,[6],> 100 µM (inactive)
same,GI50,[7],> 100 µM (inactive)
same,GI50,[8],> 100 µM (inactive)
same,GI50,[9],> 100 µM (inactive)
same,GI50,[10],> 100 µM (inactive)
same,GI50,[11],> 100 µM (inactive)
same,GI50,[12],> 100 µM (inactive)
same,GI50,[13],> 100 µM (inactive)
same,GI50,[14],> 100 µM (inactive)
same,GI50,[15],> 100 µM (inactive)
same,GI50,[16],> 100 µM (inactive)
same,GI50,[17],> 100 µM (inactive)
same,GI50,[18],> 100 µM (inactive)
same,GI50,[19],> 100 µM (inactive)
same,GI50,[20],> 100 µM (inactive)
same,GI50,[21],> 100 µM (inactive)
same,GI50,[22],> 100 µM (inactive)
same,GI50,[23],> 100 µM (inactive)
same,GI50,[24],> 100 µM (inactive)
same,GI50,[25],> 100 µM (inactive)
same,GI50,[26],> 100 µM (inactive)
same,GI50,[27],> 100 µM (inactive)
same,GI50,[28],> 100 µM (inactive)
same,GI50,[29],> 100 µM (inactive)
same,GI50,[30],> 100 µM (inactive)
same,GI50,[31],> 100 µM (inactive)
same,GI50,[32],> 100 µM (inactive)
same,GI50,[33],> 100 µM (inactive)
same,GI50,[34],> 100 µM (inactive)
same,GI50,[35],> 100 µM (inactive)
same,GI50,[36],> 100 µM (inactive)
same,GI50,[37],> 100 µM (inactive)
same,GI50,[38],> 100 µM (inactive)
same,GI50,[39],> 100 µM (inactive)
same,GI50,[40],> 100 µM (inactive)
same,GI50,[41],> 100 µM (inactive)
same,GI50,[42],> 100 µM (inactive)
same,GI50,[43],37.2 µM (inactive)
same,GI50,[44],> 100 µM (inactive)
same,GI50,[45],> 100 µM (inactive)
same,GI50,[46],> 100 µM (inactive)
same,GI50,[47],> 100 µM (inactive)
same,GI50,[48],> 100 µM (inactive)
same,GI50,[49],> 100 µM (inactive)
same,GI50,[50],> 100 µM (inactive)
same,GI50,[51],> 100 µM (inactive)
same,GI50,[52],> 100 µM (inactive)
same,GI50,[53],> 100 µM (inactive)
same,GI50,[54],> 100 µM (inactive)
same,GI50,[55],> 100 µM (inactive)
same,GI50,[56],> 100 µM (inactive)
same,GI50,[57],> 100 µM (inactive)
same,GI50,[58],> 100 µM (inactive)
O=C1NC(c2ccccc2)C1N(Cc1ccccc1)Cc1ccccc1 (stereo unspecified),GI50,[1],> 100 µM (inactive)
same,GI50,[2],> 100 µM (inactive)
same,GI50,[3],> 100 µM
same,GI50,[4],> 100 µM (inactive)
same,GI50,[5],> 100 µM (inactive)
same,GI50,[6],> 100 µM (inactive)
same,GI50,[59],93.1 µM (inactive)
same,GI50,[8],> 100 µM (inactive)
same,GI50,[9],> 100 µM (inactive)
same,GI50,[10],> 100 µM (inactive)
same,GI50,[11],61.2 µM (inactive)
same,GI50,[12],> 100 µM (inactive)
same,GI50,[13],> 100 µM (inactive)
same,GI50,[14],> 100 µM (inactive)
same,GI50,[15],> 100 µM (inactive)
same,GI50,[16],> 100 µM (inactive)
same,GI50,[17],> 100 µM (inactive)
same,GI50,[18],> 100 µM (inactive)
same,GI50,[19],> 100 µM (inactive)
same,GI50,[20],> 100 µM (inactive)
same,GI50,[21],> 100 µM (inactive)
same,GI50,[22],> 100 µM (inactive)
same,GI50,[23],> 100 µM (inactive)
same,GI50,[24],> 100 µM (inactive)
same,GI50,[25],> 100 µM (inactive)
same,GI50,[26],> 100 µM (inactive)
same,GI50,[27],59.8 µM (inactive)
same,GI50,[28],> 100 µM (inactive)
same,GI50,[29],> 100 µM (inactive)
same,GI50,[30],> 100 µM (inactive)
same,GI50,[31],> 100 µM (inactive)
same,GI50,[32],> 100 µM (inactive)
same,GI50,[33],> 100 µM (inactive)
same,GI50,[34],> 100 µM (inactive)
same,GI50,[35],> 100 µM (inactive)
same,GI50,[36],> 100 µM (inactive)
same,GI50,[37],> 100 µM (inactive)
same,GI50,[38],> 100 µM (inactive)
same,GI50,[39],> 100 µM (inactive)
same,GI50,[40],> 100 µM (inactive)
same,GI50,[41],> 100 µM (inactive)
same,GI50,[42],> 100 µM (inactive)
same,GI50,[43],> 100 µM (inactive)
same,GI50,[44],> 100 µM (inactive)
same,GI50,[45],> 100 µM (inactive)
same,GI50,[46],> 100 µM (inactive)
same,GI50,[47],> 100 µM (inactive)
same,GI50,[48],25.5 µM (inactive)
same,GI50,[49],> 100 µM (inactive)
same,GI50,[50],74.1 µM (inactive)
same,GI50,[51],> 100 µM (inactive)
same,GI50,[52],> 100 µM (inactive)
same,GI50,[53],> 100 µM (inactive)
same,GI50,[54],> 100 µM (inactive)
same,GI50,[55],> 100 µM (inactive)
same,GI50,[56],> 100 µM (inactive)
same,GI50,[57],> 100 µM (inactive)
same,GI50,[58],> 100 µM (inactive)
